Experimental data published in EP0525768A1, “Tetralones with pharmacological activity” (J. URIACH & CIA. S.A., priority 1991, dated 1993).

Experiments:
[1] = test system: Spontaneously hypertense rats; assay: Test 2: Lowering of the arterial pressure in conscious hypertense rats; type: in vivo, rat; details: caudal artery, 3 animals, value ± SEM
Procedure: Test 2: Lowering of the arterial pressure in conscious hypertense rats.
Spontaneously hypertense rats (between 200 and 250 g of body weight) of more than 8 weeks of age have been used. Diastolic and systolic arterial pressure of the rat was measured at the caudal artery using a special sphygnomanometer (Letica 5007 and 5007/4) attached to the animal's tail. To ensure rapid and reliable data, animals were placed in a heating plate at 37 °C, with the aim to produce a vasodilatation that ensured a better fixation of the rat tail to the transducer chamber. During the experiment, rats are conscious and fixed to a clamp. The tested products were administered orally. Arterial pressure was measured every 30 minutes and 10 minutes before the administration of the tested compound. The decrease of the arterial pressure was calculated for each compound at a dose of 1 mg/Kg, using 3 animals.

[2] = test system: trachea isolated from guinea pig; assay: Test 3: Direct relaxation of the trachea isolated from guinea pig; details: 50% of the maximum relaxation, maximum = relaxation induced by isoproterenol at 1x10-6 M, cumulative addition
Procedure: Test 3 -Direct relaxation of the trachea isolated from guinea pig.
This test was performed according to the experimental model described by Emmerson, J. and Mackay, D. (J. Pharm. Pharmacol., 1979, 31, 798). Tracheas were extracted from male guinea pigs of 400 g of body weight, which had been stunned by a blow in the head. Then, tracheas were cut in zigzag and placed into an isolated organ bath (Letica) containing Krebs-Henseleit solution at 37 °C and were bubbled with carbogen (95% 02 and 5% C02). The relaxation of the trachea was measured using an isometric force transducer. The basal tension was 0.5 g.

[3] = test system: portal vein isolated from rat; assay: Test 1: Inhibition of the contraction induced by noradrenaline in portal vein isolated from rat; details: 0.5 h
Procedure: Test 1: Inhibition of the contraction induced by noradrenaline in portal vein isolated from rat.
Portal vein was extracted from adult male rats (between 200 and 250 g of body weight), which had been stunned by a blow in the head. Portal vein was installed into an isolated organ bath (Letica) containing a physiological saline solution (Hamilton et al., Br. J. Pharmacol., 1986, 88, 103-111) at 37 C and a gas bubbler (5% C02 and 95% 02). Contractions were induced by noradrenaline (3µM) and were reverted after thoroughly washing with physiological saline solution. Portal vein contraction was measured with an isometric force transducer and with an initial tension of 1 g. After two contractions with noradrenaline, performed in order to measure the tissue's basal response, the tested compounds were incubated for 30 minutes and a new contraction was induced.

EC50 ([2]; Cavia porcellus) [µM] | IC50 [3] [µM] | EC50 [2] [µM] | SMILES | Pressure Decrease (mm Hg) ± SEM (1 mg/Kg p.o.) [1] [mm Hg]
0.31 | 2.8 |  | Cn1nc(O[C@@H]2c3cc(C#N)ccc3C(=O)C(C)(C)[C@H]2O)ccc1=O (racemic) [Compound 2, Rac-Trans-2,2-dimethyl-3-hydroxy-4-(6-hydroxy-1-methyl-3-pyridazinyloxy)-1-oxo-1,2,3,4-tetrahydronaphthalen-6-carbonitrile] | 112.0 ± 1.0
5.2 | 8.8 |  | CC1(C)C(=O)c2ccc(C#N)cc2[C@@H](Oc2ccc(O)nn2)[C@@H]1O (relative stereo) [Compound 1, Trans-2,2-dimethyl-3-hydroxy-4-(6-hydroxy-3-pyridazinyloxy)-1-oxo-1,2,3,4-tetrahydronaphthalen-6-carbonitrile] | 116.0 ± 5.9
3.3 | 14 |  | C=CCn1nc(O[C@@H]2c3cc(C#N)ccc3C(=O)C(C)(C)[C@H]2O)ccc1=O (relative stereo) [Compound 5, Trans-2,2-dimethyl-3-hydroxy-4-[6-hydroxy-1-(2-propenyl)-3-pyridazinyloxy]-1-oxo-1,2,3,4-tetrahydronaphthalen-6-carbonitrile] | 20.5 ± 0.5
15.6 | 0.8 |  | CC1(C)C(=O)c2ccc(Br)cc2[C@@H](Oc2ccc(O)nn2)[C@@H]1O (relative stereo) [Compound 8, Trans-6-bromo-2,2-dimethyl-3-hydroxy-4-(6-hydroxy-3-pyridazinyloxy)-1,2,3,4-tetrahydronaphthalen-1-one] | 46.5 ± 0.3
5.8 | 25 |  | CC1(C)C(=O)c2ccc(C#N)cc2[C@@H](Oc2ccccn2)[C@@H]1O (relative stereo) [Compound 11, Trans-2,2-dimethyl-3-hydroxy-1-oxo-4-(2-pyridyloxy)-1,2,3,4-tetrahydronaphthalen-6-carbonitrile] | 43.0 ± 16.0
 |  |  | CC1(C)C(=O)c2ccc(C#N)cc2[C@@H](OC2=CC(=O)CC2)[C@@H]1O (relative stereo) [Compound 12, Trans-2,2-dimethyl-3-hydroxy-1-oxo-4-(3-oxo-1-cyclopent-1-enyloxy)-1,2,3,4-tetrahydronaphthalen-6-carbonitrile] | 50.0 ± 16.0
 | 23 |  | CC1(C)C(=O)c2ccc(C#N)cc2[C@@H](NC(=O)c2ccccn2)[C@@H]1O (relative stereo) [Compound 14, Trans-2,2-dimethyl-3-hydroxy-1-oxo-4-(2-pyridylcarbonylamino)-1,2,3,4-tetrahydronaphthalen-6-carbonitrile] | 71.7 ± 14.2
4.9 | 2.8 |  | CC1(C)C(=O)c2ccc(C#N)cc2[C@@H](NC(=O)c2cccnc2)[C@@H]1O (relative stereo) [Compound 15, Trans-2,2-dimethyl-3-hydroxy-1-oxo-4-(3-pyridylcarbonylamino)-1,2,3,4-tetrahydronaphthalen-6-carbonitrile] | 50.0 ± 9.8
 |  |  | CC1(C)C(=O)c2ccc(C#N)cc2[C@@H](NC(=O)c2ccoc2)[C@@H]1O (relative stereo) [Compound 17, Trans-2,2-dimethyl-4-(3-furylcarbonylamino)-3-hydroxy-1-oxo-1,2,3,4-tetrahydronaphthalen-6-carbonitrile] | 58.0 ± 17.5
2.1 |  |  | CC1(C)C(=O)c2ccc(C#N)cc2[C@@H](NC(=O)c2ccccc2)[C@@H]1O (relative stereo) [Compound 18, Trans-2,2-dimethyl-3-hydroxy-1-oxo-4-(phenylcarbonylamino)-1,2,3,4-tetrahydronaphthalen-6-carbonitrile] | 31.0 ± 11.9
0.3 | 12 |  | COc1ccc(C(=O)N[C@@H]2c3cc(C#N)ccc3C(=O)C(C)(C)[C@H]2O)cc1 (relative stereo) [Compound 19, Trans-2,2-dimethyl-3-hydroxy-4-(4-methoxyphenylcarbonylamino)-1-oxo-1,2,3,4-tetrahydronaphthalen-6-carbonitrile] | 46.7 ± 8.6
 |  | 0.3 | Cn1nc(O[C@@H]2c3cc(C#N)ccc3C(=O)C(C)(C)[C@H]2O)ccc1=O (single isomer, unassigned) [Compound 3, (-)-Trans-2,2-dimethyl-3-hydroxy-4-(6-hydroxy-1-methyl-3-pyridazlnyloxy)-1-oxo-1,2,3,4-tetrahydronaphthalen-6-carbonitrile] | 
 |  | 4.6 | Cn1nc(O[C@@H]2c3cc(C#N)ccc3C(=O)C(C)(C)[C@H]2O)ccc1=O (single isomer, unassigned) [Compound 4, ( + ).Trans-2,2-d i methyl-3-hyd roxy-4-(6-hydroxy-1-methyl-3-pyridazinyloxy)-1-oxo-1,2,3,4-tetrahydronaphthalen-6-carbonitrile] | 
1.8 |  |  | CC(=NC#N)NC1c2cc(C#N)ccc2C(=O)C(C)(C)C1O (stereo not drawn) [Compound 22, Trans-4-(N-cyanoacetimidoylamino)-2,2-dimethyl-3-hydroxy-1-oxo-1,2,3,4-tetrahydronaphthalen-6-carbonitrile] | 
4.4 | 3.7 |  | CC1(C)C(=O)c2ccc(C#N)cc2C(Nc2cc(Cl)ncn2)C1O (stereo not drawn) [Compound 23] | 45.5 ± 11.5
